These compounds were tested on HT22 cells (assay: in vitro ischemia assay (HT22 cell IAA assay)). Settings: HT22 cells, 20 μM IAA 2 hr, viability by MTT after 24 hr; 'no' = no protection.
Type: cell-based, mouse
Method: For these studies, cultured HT22 mouse hippocampal cells were used as an in vitro stroke assay. HT22 cells were treated with iodoacetic acid (IAA), an irreversible inhibitor of glyceraldehyde 3-phosphate dehydrogenase (G3PDH) for 2 hr alone or in the presence of varying concentrations of Fisetin. G3PDH is an enzyme of the glycolysis pathway, which catalyzes the synthesis of 1,3-bisphosphoglycerate, a “high energy” intermediate used for the synthesis of ATP. Cell survival was measured using a standard colorimetric MTT (3-(4,5-dimethylthiazol-2-yl)-2,5-diphenyltetrazolium bromide) assay for cell survival MTT is a pale yellow substrate that is cleaved by living cells to yield a dark blue formazan product.
Cytotoxicity assay. Cell viability was determined by a modified version of 3-(4,5-dimethylthiazol-2-yl)-2,5-diphenyl tetrazolium bromide (MTT) assay based on the standard procedure (Maher, et al., Brain Research. (2007), supra). Cells were seeded onto 96-well microtiter plates at a density of 5×10^3 cells per well. For the in vitro ischemia assay, the next day, the medium was replaced with DMEM supplemented with 7.5% DFCS and the cells were treated with 20 μM iodoacetic acid (IAA) alone or in the presence of the different derivatives. After 2 hr the medium in each well was aspirated and replaced with fresh medium without IAA but containing the derivatives. 20 hr later, the medium in each well was aspirated and replaced with fresh medium containing 2.5 μg/ml MTT. After 4 hr of incubation at 37° C., the cells were solubilized with 100 μl of a solution containing 50% dimethylformamide and 20% SDS (pH 4.7). The absorbance at 570 nm was measured on the following day with a microplate reader (Molecular Devices). Results were confirmed by visual inspection of the wells. Controls included compound alone to test for toxicity and compound with no cells to test for interference with the assay chemistry.
For a primary screen, an in vitro ischemia model in combination with the HT22 nerve cell line (Maher, et al., Brain Research. (2007) 1173, 117-125) was chosen. […] To induce ischemia in the HT22 cells we used iodoacetic acid (IAA), a well-known, irreversible inhibitor of the glycolytic enzyme glyceraldehyde 3-phosphate dehydrogenase (G3PDH) (Winkler, et al., Exp. Eye Res. (2003) 76, 715-723). IAA has been used in a number of other studies to induce ischemia in nerve cells (Reshef, et al., Neurosci. Lett. (1997) 238, 37-40; Sperling, et al., Neursci. Lett. (2003) 351, 137-140; Rego, et al., Neurochem. Res. (1999) 24, 351-358; Sigalov, et al,. J. Mol. Neurosci. (2000) 15, 147-154; and Reiner, et al., Neurosci. Lett. (1990) 119, 175-178), including several recent screens for neuroprotective molecules (Biraboneye, et al., J. Med. Chem. (2009) 52 (14), 4358-4369; Biraboneye, et al., Chem. Med. Chem. (2010) 5 (1), 79-85). The changes following IAA treatment of neural cells are very similar to those seen in animal models of ischemic stroke (Lipton, et al., Physiol. Rev. (1999) 79, 1431-1568) and include alterations in membrane potential (Reiner, et al., Neurosci. Lett. (1990) 119, 175-178), breakdown of phospholipids (Taylor, et al., J. Pharmacol. Exp. Ther. (1996) 276, 1224-1231), loss of ATP (Winkler, et al., Exp. Eye Res. (2003) 76, 715-723; Sperling, et al., Neursci. Lett. (2003) 351, 137-140) and an increase in reactive oxygen species (ROS) (Taylor, et al., J. Pharmacol. Exp. Ther. (1996), supra; and Sperling, et al., Neursci. Lett. (2003) 351, 137-140).
The roles of the four different hydroxyl groups in the activity of Fisetin were studied. […] Cell viability was determined after 24 hr by the MTT assay. The ability to maintain GSH (GSH) was determined by treating HT22 cells with different doses of each derivative (1-10 μM) in the presence of 5 mM glutamate. After 24 hr cell extracts were prepared and analyzed for total GSH. Fisetin (10 μM) was used as a positive control. […]
In the case of `COc1ccc(-c2cc(OC)c3ccccc3n2)cc1O` [CMS-001, 4-methoxy-2-(3-hydroxy,4-methoxyphenyl)quinoline], the “EC50 in vitro ischemia” value is reported as “no”.
With `CCOc1ccc(-c2cc(OC)c3ccccc3n2)cc1OCC` [CMS-004, 4-methoxy-2-(3,4-diethoxyphenyl)quinoline] the “EC50 in vitro ischemia” value was “no”.
With `CCOc1ccc(/C=C/C(=O)c2cc(C)c(C)cc2O)cc1OCC` [CMS-013, (E)-3-(3,4-diethoxyphenyl)-1-(2-hydroxy-4,5-dimethylphenyl)prop-2-en-1-one] the “EC50 in vitro ischemia” value was “no”.
In the case of `CCOc1ccc(-c2cc(=O)c3cc(C)c(C)cc3o2)cc1OCC` [CMS-018, 2-(3,4-diethoxyphenyl)-6,7-dimethyl-4H-chromen-4-one], the “EC50 in vitro ischemia” value is reported as “no”.
With `COc1cc(-c2ccc(O)cc2)nc2ccccc12` [CMS-022, 4-methoxy-2-(4-hydroxyphenyl)quinoline] the “EC50 in vitro ischemia” value was “no”.
With `CCOc1ccc(/C=C/C(=O)c2ccc3ccccc3c2O)cc1OCC` [CMS-032, (E)-3-(3,4-diethoxyphenyl)-1-(1-hydroxynaphthalen-2-yl)prop-2-en-1-one] the “EC50 in vitro ischemia” value was “no”.
With `CCOc1ccc(-c2cc(=O)c3ccc4ccccc4c3o2)cc1OCC` [CMS-038, 2-(3,4-diethoxyphenyl)-4H-benzo[h]chromen-4-one] the “EC50 in vitro ischemia” value was “no”.

Same assay, conditions: relative to CMS-027
For `Cc1cc2oc(-c3ccc(O)c(O)c3)cc(=O)c2cc1C` [CMS-028, 2-(3,4-dihydroxyphenyl)-6,7-dimethyl-4H-chromen-4-one], the “enhancement of neuroprotective activity relative to CMS-027” value was 2 fold.

Same assay, conditions: relative to Fisetin, in vitro ischemia
For `O=c1cc(-c2ccc(O)c(O)c2)oc2c1ccc1ccccc12` [CMS-02P, reference compound], the “improvement of neuroprotective activity/potency over Fisetin” value was roughly 40 fold.
In the case of `O=c1cc(-c2ccc(O)c(O)c2)oc2ccccc12` [PM-001], the “improvement of neuroprotective activity/potency over Fisetin” value is reported as 6 fold.
For `O=c1cc(-c2ccc(O)c(O)c2)oc2ccc3ccccc3c12` [PM-003], the “improvement of neuroprotective activity/potency over Fisetin” value was roughly 40 fold.
In the case of `Cc1ccc2oc(-c3ccc(O)c(O)c3)c(O)c(=O)c2c1` [PM-010, 2-(3,4-dihydroxyphenyl)-3-hydroxy-6-methyl-4H-chromen-4-one], the “improvement of neuroprotective activity/potency over Fisetin” value is reported as 10-100 fold.

These compounds were tested on N9 microglial cells (assay: anti-inflammatory assay, LPS-induced microglial activation (NO release)). Settings: bacterial lipopolysaccharide, derivative 1-10 μM, 24 hr.
Type: cell-based, mouse
Method: Anti-inflammatory assay. Mouse N9 microglial cells plated in DME with 7.5% DFCS were treated with 10 μg/ml bacterial lipopolysaccharide (Sigma) alone or in the presence of the Fisetin derivatives (1-10 μM) or Fisetin (10 μM) as a positive control. After 24 hr the medium was removed, spun briefly to remove floating cells and 100 μl assayed for NO using 100 μl of the Griess Reagent (Sigma) in a 96 well plate. After incubation for 10 min at room temperature the absorbance at 550 nm was read on a microplate reader.
Three secondary screens allowed assessment of three key activities of Fisetin that are highly relevant to stroke, as well as other neurological disorders: maintenance of glutathione (GSH), the major endogenous cellular antioxidant, inhibition of LPS-induced microglial activation, an indicator of anti-inflammatory activity and PC12 cell differentiation, a measure of neurotrophic activity. All of these activities are relevant to the nerve cell loss seen in stroke (Gelderblom, et al., Stroke. 2009, 40 (5), 1849-1857; Pandya, et al., Cent. Nerv. Syst. Agents. Med. Chem. (2011) Apr. 27; Lewerenz, et al., J. Neurochem. (2010) 113 (2), 502-504). […] To assess GSH maintenance, total intracellular GSH levels after a 24 hr treatment with the compound both in the absence and presence of glutamate, an inducer of GSH loss and oxidative stress (Tan, et al., Curr. Top. Med. Chem. (2001) 1, 497-506; Maher, et al., Free Radical Research. (2006) 40 (10), 1105-1111) was measured Inhibition of LPS-induced microglial activation was determined by treating N9 mouse microglial cells with LPS alone and in the presence of the compounds and assaying NO release into the medium 24 hr later (Zheng, et al., Int. Immunopharmacol. (2008) 8, (3), 484-494). PC12 cell differentiation was determined by treating PC12 cells with the compounds and looking at neurite outgrowth after 24 hr. In all cases, Fisetin was used as a positive control (Sagara, et al., J. Neurochem. (2004) 90, 1144-1155).
The roles of the four different hydroxyl groups in the activity of Fisetin were studied. […] Cell viability was determined after 24 hr by the MTT assay. The ability to maintain GSH (GSH) was determined by treating HT22 cells with different doses of each derivative (1-10 μM) in the presence of 5 mM glutamate. After 24 hr cell extracts were prepared and analyzed for total GSH. Fisetin (10 μM) was used as a positive control. The ability to induce PC12 cell differentiation (PC12 diff'n) was determined by treating PC12 cells in N2 medium with different doses of each derivative (1-10 μM) for 24 hr. Differentiation was assessed by visual inspection with Fisetin (10 μM) as a positive control. Anti-inflammatory activity (microglia) was assessed in N9 microglial cells treated with bacterial lipopolysaccharide alone or in the presence different doses of each derivative (1-10 μM) for 24 hr. Fisetin was used as a positive control. TEAC values, a measure of direct antioxidant activity, were determined using the ABTS+ decolorization assay.
For `COc1ccc(-c2cc(OC)c3ccccc3n2)cc1O` [CMS-001, 4-methoxy-2-(3-hydroxy,4-methoxyphenyl)quinoline], the “microglia (anti-inflammatory activity)” value was 69%.
With `O=c1cc(-c2ccc(O)c(O)c2)oc2c1ccc1ccccc12` [CMS-02P, reference compound] the “microglia (anti-inflammatory activity)” value was 55%.
With `CCOc1ccc(-c2cc(OC)c3ccccc3n2)cc1OCC` [CMS-004, 4-methoxy-2-(3,4-diethoxyphenyl)quinoline] the “microglia (anti-inflammatory activity)” value was 76%.
In the case of `CCOc1ccc(/C=C/C(=O)c2cc(C)c(C)cc2O)cc1OCC` [CMS-013, (E)-3-(3,4-diethoxyphenyl)-1-(2-hydroxy-4,5-dimethylphenyl)prop-2-en-1-one], the “microglia (anti-inflammatory activity)” value is reported as 56%.
`CCOc1ccc(-c2cc(=O)c3cc(C)c(C)cc3o2)cc1OCC` [CMS-018, 2-(3,4-diethoxyphenyl)-6,7-dimethyl-4H-chromen-4-one] was tested, and the “microglia (anti-inflammatory activity)” value was 2%.
For `COc1cc(-c2ccc(O)cc2)nc2ccccc12` [CMS-022, 4-methoxy-2-(4-hydroxyphenyl)quinoline], the “microglia (anti-inflammatory activity)” value was 4%.
`Cc1cc2oc(-c3ccc(O)c(O)c3)cc(=O)c2cc1C` [CMS-028, 2-(3,4-dihydroxyphenyl)-6,7-dimethyl-4H-chromen-4-one] was tested, and the “microglia (anti-inflammatory activity)” value was 93%.
With `CCOc1ccc(/C=C/C(=O)c2ccc3ccccc3c2O)cc1OCC` [CMS-032, (E)-3-(3,4-diethoxyphenyl)-1-(1-hydroxynaphthalen-2-yl)prop-2-en-1-one] the “microglia (anti-inflammatory activity)” value was 5%.
For `CCOc1ccc(-c2cc(=O)c3ccc4ccccc4c3o2)cc1OCC` [CMS-038, 2-(3,4-diethoxyphenyl)-4H-benzo[h]chromen-4-one], the “microglia (anti-inflammatory activity)” value was 2%.
In the case of `Cc1cc2oc(-c3ccc(O)cc3O)c(O)c(=O)c2cc1C` [CMS-093, 2-(2,4-dihydroxyphenyl)-3-hydroxy-6,7-dimethyl-4H-chromen-4-one], the “microglia (anti-inflammatory activity)” value is reported as 0%.
With `Cc1cc2oc(-c3ccc(O)cc3O)cc(=O)c2cc1C` [CMS-094, 2-(2,4-dihydroxyphenyl)-6,7-dimethyl-4H-chromen-4-one] the “microglia (anti-inflammatory activity)” value was 5%.
In the case of `COc1cc(-c2ccc(N(C)C)cc2)nc2ccccc12` [CMS-109, 4-methoxy-2-(4-dimethylaminophenyl)quinoline], the “microglia (anti-inflammatory activity)” value is reported as 62%.
In the case of `CC(C)Oc1cc(-c2ccc(N(C)C)cc2)nc2ccccc12` [CMS-112, 4-isopropoxy-2-(4-dimethylaminophenyl)quinoline], the “microglia (anti-inflammatory activity)” value is reported as 71%.
In the case of `CC(C)Oc1cc(-c2ccc(N3CCCC3)cc2)nc2ccccc12` [CMS-113, 4-isopropoxy-2-(4-(pyrrolidin-1-yl)phenyl)quinoline], the “microglia (anti-inflammatory activity)” value is reported as 67%.
For `O=c1c(O)c(-c2ccc(N3CCCC3)cc2)oc2c1ccc1ccccc12` [CMS-114, 3-hydroxy-2-(4-(pyrrolidin-1-yl)phenyl)-4H-benzo[h]chromen-4-one], the “microglia (anti-inflammatory activity)” value was 26%.
In the case of `O=c1cc(-c2ccc(N3CCCC3)cc2)oc2c1ccc1ccccc12` [CMS-115, 2-(4-(pyrrolidin-1-yl)phenyl)-4H-benzo[h]chromen-4-one], the “microglia (anti-inflammatory activity)” value is reported as 23%.
For `Cc1cc2oc(-c3ccc(N4CCCC4)cc3)cc(=O)c2cc1C` [CMS-116, 6,7-dimethyl-2-(4-(pyrrolidin-1-yl)phenyl)-4H-chromen-4-one], the “microglia (anti-inflammatory activity)” value was 2%.
`Cc1cc2oc(-c3ccc(N(C)C)cc3)cc(=O)c2cc1C` [CMS-119, 2-(4-(dimethylamino)phenyl)-6,7-dimethyl-4H-chromen-4-one] was tested, and the “microglia (anti-inflammatory activity)” value was 8%.
In the case of `CN(C)c1ccc(-c2cc(=O)c3ccc4ccccc4c3o2)cc1` [CMS-120, 2-(4-(dimethylamino)phenyl)-4H-benzo[h]chromen-4-one], the “microglia (anti-inflammatory activity)” value is reported as 35%.

From patent US9744164B2, “Neuroprotective polyphenol analogs” (Salk Institute for Biological Studies, priority 2011, dated 2017)
